# According to patent publication US8652492B2, “Wet granulation using a water sequestering agent” (Rigel Pharmaceuticals, Inc., priority 2007, dated 2014):
# Assay: Bulk density (uncompressed, untapped powder)
# Assay type: physicochemical
# Details: Compound 1 as synthesized, cotton like fluffy agglomerates
# Experimental: As used herein, the term “bulk density” refers to the uncompressed, untapped powder bulk density, as measured by pouring an excess of powder sample through a funnel into a smooth metal vessel (e.g., a 500 mL volume cylinder), scraping off the excess from the heap above the rim of the vessel, measuring the remaining mass of powder and dividing the mass by the volume of the vessel.
# Three 500 g batches of Compound 1 powder blends (see Table 3) were prepared according to the following method. A KG-5 High Shear Granulator with an 8-inch impeller diameter was used to preblend all ingredients (except magnesium stearate) at low (155 rpm), medium (405 rpm), or high (600 rpm) impeller speeds with the chopper speed of 1200 rpm for 2 minutes. Water was added at a rate of 30 to 31.5 g/min to the powder mix. After the full amount of water was added, the mixture was blended for an additional 2 minutes. The wet granules were dried with the MiniGlatt Fluid Bed Dryer at 60° C. to targeted LODs and the granule texture, size, shape, stickiness, etc visually inspected. Drying at various temperatures and times are evaluated also. […] The final blends were checked for degradation by HPLC, and physical properties determined such as, Bulk Density, Tapped Density, Carr's Index, Hausner Ratio and Flow Index by Flodex. […]
structure (smiles),measurement,value
"COc1cc(Nc2ncc(F)c(Nc3ccc4c(n3)N(COP(=O)([O-])[O-])C(=O)C(C)(C)O4)n2)cc(OC)c1OC.[Na+].[Na+] [Compound 1, (6-(5-fluoro-2-(3,4,5-trimethoxyphenylamino)pyrimidin-4-ylamino)-2,2-dimethyl-3-oxo-2H-pyrido[3,2-b][1,4]oxazin-4(3H)-yl)methyl phosphate disodium salt]",bulk density,0.15 to 0.30 g/mL
